Source: PubChem BioAssay AID1963430 (Molecular Pharmacology Branch, DTP, NCI, 2024)
pIC50: −log10 of the molar value.

Test system: 521955-158-R2-J5-PDC complex spheroid growth, % test/control
Assay: Anticancer human tumor 521955-158-R2-J5-PDC patient-derived pancreatic carcinoma cell line growth inhibition [Asc]
Conditions: for pIC50: curve of first compound; for viability, T/C: stronger effect = lower value; active = viability on the fitted dose curve at most 10% of control; inactive = the rest
Protocol: Multicellular complex tumor spheroid response to apoptosis pathway targeting inhibitors Alrizomadlin, Pelcitoclax, and Dasminapant in combination with a variety of drugs and investigational agents in selected tumor cell lines
The MDM2 inhibitor alrizomadlin, the Bcl-2/Bcl-xL inhibitor pelcitoclax, and the IAPs inhibitor dasminapant were evaluated both individually and in combination with standard of care and investigational anticancer small molecules within a complex spheroid model of solid tumors. . Complex spheroids include a stromal component modeled by human endothelial cells (HUVEC) and fibroblasts modeled by human mesenchymal stem cells (MSCs). The concentration ranges selected for each drug and investigational agent were based upon clinically achievable concentrations if the clinical Cmax of the agent was known.
Compounds. The drugs and investigational agents: alrizomadlin (APG-115; NSC831270), pelcitoclax (APG-1252; NSC835773), dasminapant (APG-1387;NSC834197), TAK-243 (NSC785004), copanlisib (NSC809693), olaparib (NSC753686), talazoparib (NSC767125), cobimetinib (NSC 768068), eltanexor (KPT-8602, NSC 794443), abemaciclib (NSC 768073), sotorasib (NSC818433), adagrasib (NSC 831453), MRTX-1133 (NSC 836407), Iadademestat (ORY1001, NSC 806812), and RMC-4630 (NSC839698), were obtained from the NCI Developmental Therapeutics Program Chemical Repository. The FDA-approved anticancer drug set is available from the Developmental Therapeutics Program at https://dtp.cancer.gov/organization/dscb/obtaining/available plates.htm. […] The stock solutions were prepared in dimethyl sulfoxide (DMSO, Sigma-Aldrich, St. Louis, MO, cat. D2650) at 800-fold the tested concentration and stored at -70 degrees C prior to their use. All drugs and investigational agents were tested over a range starting from a high concentration at or near the clinical Cmax and decreasing in half-log increments. If the clinical Cmax for an agent had not been determined, the highest concentration tested was 10 microM.
The patient-derived cancer (PDC) cell lines include five colon adenocarcinomas: 186277-243-T-J2-PDC, 616215-338-R-J1-PDC, 439559-082-T-J2-PDC, 463943-066-T-J2-PDC, and 519858-162-T-J1-PDC; three pancreatic carcinomas: 323965-272-R-J2-PDC, 521955-158-R6-J3-PDC, and 521955-158-R2-J5-PDC; two uterine sarcomas: 327498-152-R-J2-PDC and 993429-296-R-J1-PDC; two rhabdomyosarcomas: 755483-174-R-J1-PDC and 772245-204-R-J1-PDC; two soft tissue sarcomas: 126254-015-R-J1-PDC and 494315-158-R-J1-PDC; two malignant fibrous histiocytomas: 317291-083-R-J1-PDC and 596521-263-R-J1-PDC; two breast carcinomas: 171881-019-R-J1-PDC and 885512-296-R-J2-PDC; and one ovarian carcinoma: 6556581-035-R-J-PDC were obtained from the NCI PDMR, (https://pdmr.cancer.gov). The established cell lines HSSY-2 synovial sarcoma (RRID:CVCL 8719), SYO-1 synovial sarcoma (RRID:CVCL_7146), MPNST malignant peripheral neural sheath tumor were obtained from the Sloan Kettering Institute. The following established cell lines were purchased from the American Type Culture Collection (ATCC, Manassas, VA), Sor the received from the NCI repository:, PANC-1 pancreatic carcinoma (CRL-1469, RRID:CVCL_0480), OVCAR-5 ovarian carcinoma (RRID:CVCL_1628), OVCAR-8 ovarian carcinoma (RRID:CVCL_1629), , MCF-7 breast carcinoma (CRL-12584, RRID:CVCL_0031), MDA-MB-231 breast carcinoma (CRL-12532, RRID:CVCL_0062), NCI-H1876 small cell lung carcinoma (CRL-5902, RRID:CVCL_1503), NCI-H510A small cell lung carcinoma (HTB-184, RRID:CVCL_1565), NCI-H1417 (CRL-5869, RRID:CVCL_1469), and NCI-H196 small cell lung carcinoma (CRL-5823, RRID:CVCL_1509). Dr. Peter Houghton (Greehey Children's Cancer Research Institute, University of Texas Health Science Center, San Antonio, TX) provided Rh-18 rhabdomyosarcoma (RRID:CVCL_1659). Pooled donor human umbilical vein endothelial cells (HUVEC, Lonza, cat. CC-2519) and human mesenchymal stem cells (hMSC, Lonza, cat. PT-2501) were purchased from Lonza (Walkersville, MD).
Cell Culture. […]
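Note: spheroids exposed to agents for 7 days before readout.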
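Throughout, for viability, T/C: 100% = DMSO vehicle control viability.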

O=C(c1ccc(F)c(F)c1Nc1ccc(I)cc1F)N1CC(O)([C@@H]2CCCCN2)C1 + Cc1c(S(C)(=O)=O)c(-c2cc(F)cc(N3CCN(c4ccc(NS(=O)(=O)c5ccc(NC(CCN6CCC(C(=O)OCCCP(=O)(O)O)CC6)CSc6ccccc6)c(S(=O)(=O)C(F)(F)F)c5)cc4)CC3)c2)c(-c2ccc(Cl)cc2)n1C(C)C
7.49: pIC50 (second compound 1 µM)
7.10: pIC50 (second compound 10 µM)
inactive: viability, T/C (second compound 0.1 µM, first compound 0.00316 µM) 64% | viability, T/C (second compound 0.1 µM, first compound 0.01 µM) 60.4% | viability, T/C (second compound 0.1 µM, first compound 0.0316 µM) 69.8% | viability, T/C (second compound 0.1 µM, first compound 0.1 µM) 45.5% | viability, T/C (second compound 0.1 µM, first compound 0.316 µM) 34.5% | viability, T/C (second compound 0.1 µM, first compound 1 µM) 19.9% | viability, T/C (second compound 0.316 µM, first compound 0.00316 µM) 66.9% | viability, T/C (second compound 0.316 µM, first compound 0.01 µM) 44.6% | viability, T/C (second compound 0.316 µM, first compound 0.0316 µM) 56.5% | viability, T/C (second compound 0.316 µM, first compound 0.1 µM) 37.8% | viability, T/C (second compound 0.316 µM, first compound 0.316 µM) 23.2% | viability, T/C (second compound 0.316 µM, first compound 1 µM) 13% | viability, T/C (second compound 1 µM, first compound 0.00316 µM) 82% | viability, T/C (second compound 1 µM, first compound 0.01 µM) 64.6% | viability, T/C (second compound 1 µM, first compound 0.0316 µM) 49.1% | viability, T/C (second compound 1 µM, first compound 0.1 µM) 37.6% | viability, T/C (second compound 1 µM, first compound 0.316 µM) 18.1% | viability, T/C (second compound 3.16 µM, first compound 0.00316 µM) 61.2% | viability, T/C (second compound 3.16 µM, first compound 0.01 µM) 75.1% | viability, T/C (second compound 3.16 µM, first compound 0.0316 µM) 50.8% | viability, T/C (second compound 3.16 µM, first compound 0.1 µM) 31.6% | viability, T/C (second compound 3.16 µM, first compound 0.316 µM) 9.65% | viability, T/C (second compound 10 µM, first compound 0.00316 µM) 169% | viability, T/C (second compound 10 µM, first compound 0.01 µM) 242% | viability, T/C (second compound 10 µM, first compound 0.0316 µM) 135% | viability, T/C (second compound 10 µM, first compound 0.1 µM) 36.1% | viability, T/C (second compound 10 µM, first compound 0.316 µM) 10.6% | viability, T/C (second compound 10 µM, first compound 1 µM) 2.76%
7.40: pIC50 (second compound 3.16 µM)
7.67: pIC50 (second compound 0.316 µM)
active: viability, T/C (second compound 1 µM, first compound 1 µM) 5.29% | viability, T/C (second compound 3.16 µM, first compound 1 µM) 5.32%
6.99: pIC50 (second compound 0.1 µM)

O=C(c1cc(Cc2n[nH]c(=O)c3ccccc23)ccc1F)N1CCN(C(=O)C2CC2)CC1 + CCN1C(C(=O)NC23CCC(C(=O)O)(CC2)CC3)C(c2cccc(Cl)c2F)C2(C(=O)Nc3cc(Cl)ccc32)C12CCCCC2
inactive: viability, T/C (second compound 0.03 µM, first compound 0.0316 µM) 101% | viability, T/C (second compound 0.03 µM, first compound 0.1 µM) 113% | viability, T/C (second compound 0.03 µM, first compound 0.316 µM) 68.7% | viability, T/C (second compound 0.03 µM, first compound 1 µM) 91.9% | viability, T/C (second compound 0.03 µM, first compound 3.16 µM) 86.1% | viability, T/C (second compound 0.03 µM, first compound 10 µM) 63% | viability, T/C (second compound 0.0949 µM, first compound 0.0316 µM) 114% | viability, T/C (second compound 0.0949 µM, first compound 0.1 µM) 102% | viability, T/C (second compound 0.0949 µM, first compound 0.316 µM) 99% | viability, T/C (second compound 0.0949 µM, first compound 1 µM) 73.2% | viability, T/C (second compound 0.0949 µM, first compound 3.16 µM) 74.2% | viability, T/C (second compound 0.0949 µM, first compound 10 µM) 74.5% | viability, T/C (second compound 0.3 µM, first compound 0.0316 µM) 96.9% | viability, T/C (second compound 0.3 µM, first compound 0.1 µM) 131% | viability, T/C (second compound 0.3 µM, first compound 0.316 µM) 104% | viability, T/C (second compound 0.3 µM, first compound 1 µM) 87.2% | viability, T/C (second compound 0.3 µM, first compound 3.16 µM) 75.2% | viability, T/C (second compound 0.3 µM, first compound 10 µM) 66.8% | viability, T/C (second compound 0.949 µM, first compound 0.0316 µM) 123% | viability, T/C (second compound 0.949 µM, first compound 0.1 µM) 124% | viability, T/C (second compound 0.949 µM, first compound 0.316 µM) 113% | viability, T/C (second compound 0.949 µM, first compound 1 µM) 113% | viability, T/C (second compound 0.949 µM, first compound 3.16 µM) 93.3% | viability, T/C (second compound 0.949 µM, first compound 10 µM) 88.8% | viability, T/C (second compound 3 µM, first compound 0.0316 µM) 109% | viability, T/C (second compound 3 µM, first compound 0.1 µM) 137% | viability, T/C (second compound 3 µM, first compound 0.316 µM) 135% | viability, T/C (second compound 3 µM, first compound 1 µM) 126% | viability, T/C (second compound 3 µM, first compound 3.16 µM) 106% | viability, T/C (second compound 3 µM, first compound 10 µM) 98%
< 5.00: pIC50 (second compound 0.03 µM) | pIC50 (second compound 0.0949 µM) | pIC50 (second compound 0.3 µM) | pIC50 (second compound 0.949 µM) | pIC50 (second compound 3 µM)
